Measured values as given in publication PMC7582770, “Synthesis of “All-Cis” Trihydroxypiperidines from a Carbohydrate-Derived Ketone: Hints for the Design of New β-Gal and GCase Inhibitors” (Molecules, 2020).
Entries after “also recorded” stand apart in the source; their conditions may differ.

What was measured:
[1] = target: T1, GCase in fibroblasts with the N370S/RecNcil mutation (Homo sapiens, UniProt P04062, N409S); experiment: Pharmacological chaperoning activity (GCase activity in Gaucher patient fibroblasts); type: cell-based; details: six concentrations (10 nM to 100 µM), 4 days incubation
T1 construct: Fibroblasts with the N370S/RecNcil mutation from patients with Gaucher disease; host or cells: human Gaucher patient fibroblasts, N370S/RecNciI
T1 sequence (P04062 40-536 N409S): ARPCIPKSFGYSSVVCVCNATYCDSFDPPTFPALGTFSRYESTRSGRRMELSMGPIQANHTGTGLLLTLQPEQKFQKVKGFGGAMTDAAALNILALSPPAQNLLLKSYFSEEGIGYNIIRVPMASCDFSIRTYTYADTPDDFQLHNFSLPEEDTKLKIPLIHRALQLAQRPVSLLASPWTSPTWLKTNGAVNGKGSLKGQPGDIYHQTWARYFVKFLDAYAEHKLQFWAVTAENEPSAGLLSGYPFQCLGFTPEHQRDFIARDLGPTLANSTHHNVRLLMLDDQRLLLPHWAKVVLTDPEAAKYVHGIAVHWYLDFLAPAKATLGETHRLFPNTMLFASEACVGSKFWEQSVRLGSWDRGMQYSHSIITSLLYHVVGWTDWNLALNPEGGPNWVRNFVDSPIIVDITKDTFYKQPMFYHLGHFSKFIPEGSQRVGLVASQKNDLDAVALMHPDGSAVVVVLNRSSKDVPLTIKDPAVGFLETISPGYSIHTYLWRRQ
Method: Fibroblasts with the N370S/RecNcil mutation from patients with Gaucher disease were obtained from the “Cell line and DNA Biobank from patients affected by Genetic Diseases” (Gaslini Hospital, Genova, Italy). Fibroblasts cells (15.0 × 10^4) were seeded in T25 flasks with DMEM supplemented with fetal bovine serum (10%), penicillin/streptomycin (1%), and glutamine (1%) and incubated at 37 °C with 5% CO2 for 24 h. The medium was removed, and fresh medium containing compound 10 was added to the cells and left for 4 days. The medium was removed, and the cells were washed with PBS and detached with trypsin to obtain cell pellets, which were washed four times with PBS, frozen, and lysed by sonication in water. Enzyme activity was measured as reported above. Reported data are mean S.D. (n = 2).
Pharmacological chaperoning activity
Fibroblasts with the N370S/RecNcil mutation from Gaucher disease patients were obtained from the “Cell line and DNA Biobank from patients affected by Genetic Diseases” (Gaslini Hospital, Genova, Italy). Fibroblasts cells (20.0 x 104) were seeded in T25 flasks with DMEM supplemented with fetal bovine serum (10%), penicillin/streptomycin (1%), and glutamine (1%) and incubated at 37 °C with 5% CO2 for 24 h. The medium was removed, and fresh medium containing the compounds 9, 10 or 12 at different concentrations (10 nM, 100 nM, 1 µM, 10 µM, 50 µM, 100 µM) was added to the cells and left for 4 days. The medium was removed, and the cells were washed with PBS and detached with trypsin to obtain cell pellets, which were washed four times with PBS, frozen and lysed by sonication in water. Enzyme activity was measured as reported above. Reported data are mean S.D. (n=2).
Figure S52: GCase activity in human fibroblasts derived from GD patients bearing N370/RecNcil mutations in the presence of compound 9.
Figure S53: GCase activity in human fibroblasts derived from GD patients bearing N370/RecNcil mutations in the presence of compound 10. The flasks containing cells incubated with 100 µM and 50 µM […]

[2] = tested on: β-glucosidase EC 3.2.1.21; experiment: Commercial glycosidase screening; type: biochemical, almonds; details: for % Inhibition at 0.1 mM, β-glucosidase almonds: 0.1 mM inhibitor
From the text: (§1) A panel of 12 commercial glycosidases (α-L-fucosidase EC 3.2.1.51 from Homo sapiens, α-galactosidase EC 3.2.1.22 from coffee beans, β-galactosidases EC 3.2.1.23 from Escherichia coli and Aspergillus oryzae, α-glucosidases EC 3.2.1.20 from yeast and rice, amyloglucosidase EC 3.2.1.3 from Aspergillus niger, β-glucosidase EC 3.2.1.21 from almonds, α-mannosidase EC 3.2.1.24 from Jack beans, β-mannosidase EC 3.2.1.25 from snail, β-N-acetylglucosaminidases EC 3.2.1.52 from Jack beans and bovine kidney) purchased from Sigma-Aldrich (St. Louis, MO, USA) or Megazyme Ltd. (Bray, Co. Wicklow, Ireland) was screened.
(§2) The percentage (%) of inhibition towards the corresponding glycosidase was determined in quadruplicate in the presence of 100 μM of the inhibitor on the well. Each enzymatic assay (final volume 0.12 mL) contains 0.01–0.5 units/mL of the enzyme (with previous calibration) and 4.2 mM aqueous solution of the appropriate p-nitrophenyl glycopyranoside (substrate) buffered to the optimal pH of the enzyme. Enzyme and inhibitor were preincubated for 5 min at room temperature, and the reaction started by addition of the substrate. After 20 min of incubation at 37 °C, the reaction was stopped by the addition of 0.1 mL of sodium borate solution (pH 9.8). The p-nitrophenolate formed was measured by visible absorption spectroscopy at 405 nm (Asys Expert 96 spectrophotometer, Biochrom Ltd., Cambridge, England). Under these conditions, the p-nitrophenolate released led to optical densities linear with both reaction time and concentration of the enzyme (for more details, see the Supplementary Materials). The IC50 value (concentration of inhibitor required for 50% inhibition of enzyme activity) was determined from plots of % inhibition vs. different inhibitor concentrations. Each point of the graph is the average of four measures. The standard deviation for each point has been also represented in the graph.

[3] = tested on: β-N-acetylglucosaminidase EC 3.2.1.52; experiment: Commercial glycosidase screening; type: biochemical, Jack beans; details: 0.1 mM inhibitor
From the text: as §1, §2

[4] = tested on: β-N-acetylglucosaminidase EC 3.2.1.52; experiment: Commercial glycosidase screening; type: biochemical, bovine kidney; details: 0.1 mM inhibitor
From the text: as §1, §2

[5] = tested on: α-glucosidase EC 3.2.1.20; experiment: Commercial glycosidase screening; type: biochemical, rice; details: 0.1 mM inhibitor
From the text: as §1, §2

Structure (SMILES) | GCase enzyme rescue (chaperoning activity) [1] | % Inhibition at 0.1 mM, β-glucosidase almonds [2] | IC50 ([2]; read-out: IC50 (β-glucosidase from almonds)) | % Inhibition at 0.1 mM, β-N-acetylglucosaminidase Jack beans [3] | % Inhibition at 0.1 mM, β-N-acetylglucosaminidase bovine kidney [4] | % Inhibition at 0.1 mM, α-glucosidase rice [5]
CCCCCCCCCO[C@H]1CNC[C@@H](O)[C@H]1O [compound 9, (3S, 4R, 5R)-4,5-Dihydroxy-3-(Nonyloxy) Piperidine] | did not impart any enzyme rescue; also recorded: None of the compounds gave enzyme rescue | – | – | – | – | –
CCCCCCCCCCCCN[C@H]1CNC[C@@H](O)[C@H]1O [compound 10, (3R, 4S, 5S)-3,4-Dihydroxy-5-(Dodecylamino) Piperidine] | failed to rescue the enzyme activity; also recorded: did not impart any enzyme rescue; also recorded: None of the compounds gave enzyme rescue | 51±1% | 85 µM | - (no inhibition detected) | - (no inhibition detected) | - (no inhibition detected)
CCCCCCCC[C@]1(O)CNC[C@@H](O)[C@H]1O [compound 12, (3S, 4R, 5R)-3,4,5-Trihydroxy-3-Octyl-Piperidine] | did not impart any enzyme rescue; also recorded: None of the compounds gave enzyme rescue | - (no inhibition detected) | – | - (no inhibition detected) | - (no inhibition detected) | - (no inhibition detected)
CCCCCCCCCO[C@@H]1CNC[C@@H](O)[C@H]1O [compound 21, (3R, 4R, 5R)-4,5-Dihydroxy-3-(Nonyloxy) Piperidine] | – | - (no inhibition detected) | – | - (no inhibition detected) | - (no inhibition detected) | - (no inhibition detected)
